Here are results for 1 compound from US20150320709A1, “METHODS AND COMPOSITIONS FOR FACILITATING WEIGHT LOSS BY ADMINISTRATION OF THYROID HORMONES” (priority 2011, published 2015).

The test is described as follows: Circulating thyroid hormone labs (FT3, FT4, rT3, TSH) in weight loss program patients on thyroid hormone treatment. In kind it is in vivo, human. The text has this: FIG. 1 depicts hormonal responses to a hypocaloric state with subsequent treatment. Note: Time frames and shapes of response curves are approximated. Levels of all four hormones are normal before the diet (Time A). At time between time points B and D, TSH is dropping slightly to signal the thyroid gland to make less thyroid hormone. This drop is the mechanism to decrease metabolism in the hypocaloric state. At point C, free T3 begins to drop as rT3 increases. Also at time point C, different observations have been reported for changes in FT4: in our experience, FT4 also drops as indicated on the graph. In the literature, some report no change, whereas others report an increase in FT4. By the time of the blood sampling (time E), in our experience, patients whose FT3 and FT4 have dropped to the low end of normal (with possible above normal rT3 levels) are those experiencing symptoms of low thyroid. They may have any of the following symptoms: feeling cold, cold hands and feet, elevated diastolic blood pressure secondary to vasoconstriction, fatigue, depression, constipation, hair loss, dry skin, insomnia, as well as others. They have often hit a plateau of weight loss even though they have continued to maintain their hypocaloric diet and exercise program. At point F, we begin treatment with thyroid hormone (for example, T4 with T3, T3 alone, T3 with T2 and T4, or T2 alone. Between points F and G, FT3 and rT3 (and FT4 if T4 was administered) are returning to more normal levels, while TSH plummets, often to undetectable levels. At time point H, symptoms of low thyroid are resolved, the patient has no symptoms of hyperthyroidism, and if rT3 had risen and was treated appropriately, rT3 decreased.
The first patient example is a person, 5′2″, weight 268 lbs, body mass index (BMI) 49 (nl 19-24; overweight 25-29; obesity≧30). Baseline blood pressure was 110/74, blood sugar (BS) was 153 mg/dL 10 days after their first visit. Their medical problems at baseline included obesity, type 2 diabetes mellitus (DM2), high blood pressure (HTN), fatigue, depression, and asthma. Their medications included glipizide 10 mg daily, amitriptyline 50 mg daily, metoprolol 50 mg daily, furosemide 40 mg daily, potassium chloride, lisinopril 10 mg daily, Advair Discus 500/50 twice daily (bid), and montelukast 10 mg daily. They were started on our comprehensive program. Five months after starting their weight loss treatment, they developed symptoms of hypothyroidism with constipation and fatigue. They had lost 28 lbs by this time and was having difficulty losing more weight even though they were eating less than they were before their weight loss treatment began. At the start of treatment, their FT4 was 0.9 ng/dL (nl 0.7-1.48). At the time of their low thyroid symptoms, their FT3 was 2.9 pg/mL (nl 1.71-3.71) and their FT4 was 0.91 ng/dL (nl 0.7-1.48). They were then treated with thyroid hormone (desiccated thyroid with a ratio of T4:T3 of about 4:1) at 60 mg daily for 6 days to acclimate, then increased to 120 mg daily. […] After two years on their weight loss treatment, their weight was 231 lbs. […] We tested for rT3 at this point. Their labs on the 150 mg dose of desiccated thyroid were: rT3 394 pg/mL (nl 90-350), FT3 3.94 pg/mL (nl 1.71-3.71), and FT4 1.24 ng/dL (nl 0.7-1.48). The task of bringing down their rT3 was then addressed. Over a period of a few months, their desiccated thyroid hormone was discontinued and instead the patient was given gradually increasing doses of T3 only, starting at 20 mcg daily and gradually increasing the T3 to 60 mcg bid. Five months after starting on T3 with increasing doses, their weight had dropped to 209 lbs. Their BP was 118/66 mmHg with pulse of 74 on lisinopril 10 mg daily, metoprolol 50 mg bid, and furosemide 40 mg daily. Instead of glipizide, they were taking metformin 500 mg bid. […] Their most recent labs on 60 mcg bid of T3 were FT3 3.8 pg/mL (nl 1.71-3.71), FT4 0.64 ng/dL (nl 0.7-1.48) and rT3 137 pg/mL (nl 90-350). Four months prior to this visit their BS was 125 mg/dl. […]

Molecules are shown by their SMILES.

For the compound `N[C@@H](Cc1cc(I)c(Oc2ccc(O)c(I)c2)c(I)c1)C(=O)O` [T3, (2S)-2-amino-3-[4-(4-hydroxy-3-iodo-phenoxy)-3,5-diiodo-phenyl]propanoic acid], the FT4 (Patient Example 1, on 60 mcg bid, nl 0.7-1.48) came to 0.64 ng/dL; the FT4 (Patient Example 2, T3 only, 25 mcg bid, nl 0.93-1.70) was 0.67 ng/dL; the FT4 entry (Patient Example 4, T3 50 mcg 2 PO q am and 1 PO 8-10 hours later, normal range 0.93-1.7) is recorded as “less than 0.1 ng/dL”. The FT3 runs as follows: (Patient Example 1, on 60 mcg bid, nl 1.71-3.71) 3.8 pg/mL; (Patient Example 2, T3 only, 25 mcg bid, nl 2.2-4.0) 2.5 pg/mL; (Patient Example 4, T3 50 mcg 2 PO q am and 1 PO 8-10 hours later, normal range 2.2-4.0) 7.0 pg/mL. Further, the rT3 runs as follows: (Patient Example 1, on 60 mcg bid, nl 90-350) 137 pg/mL; (Patient Example 2, T3 only, 25 mcg bid, nl 90-350) 193 pg/mL; (Patient Example 4, T3 50 mcg 2 PO q am and 1 PO 8-10 hours later, normal range 90-350) “less than 15 pg/mL”.
